# From patent US10822334B2, “ErbB receptor inhibitors” (Dizal (Jiangsu) Pharmaceutical Co., Ltd., priority 2018, dated 2020)
# Assays:
# Format in all cases: cell-based
# BT474 cells = experiment: BT474 anti-proliferation assay (MTS); conditions: Homo sapiens, BT-474; BT474 cells, 72 h, MTS; read-out: HER2 WT Amplification BT474 GI50
# Description: A compound's activity of selective inhibition for HER2 wild type amplification can be evaluated with BT474 cell line (ATCC® HTB-20™). The cell line expressed phosphorylated HER2 protein and its proliferation depended on the amplified gene, which could be used for in vitro PD and anti-proliferation assays.
# The anti-proliferation activity of compounds were determined as following procedure: The BT474 cells were sorted in 384 well plates with the DMEM medium containing 10% FBS and […] overnight and then dosed with tested compounds at a series of concentrations (30 μM, 10 μM, 3 μM, 0.3 μM, 0.1 μM, 0.03 μM, 0.01 μM, 0.001 μM) on next day. Meanwhile, another cells plate was prepared for measuring GO value on next day. The dosed plates were incubate for 72h at 37° C. with 5% CO2 and the number of viable cells in each well of GO or dosed plates were measured by MTS (CellTiter 96® AQueous One Solution Cell Proliferation Assay, Promega) endpoint. This assay is a colorimetric method for determining the number viable cells in the proliferation assay. Detection reagents (5 μl) was dispensed into per well, and the plates were incubated for 2 hrs at room temperature. Then, absorbance at 490 nm and 650 nm (reference wavelength) in each well was measured using the safile II. (Tecan). The percentage of proliferation was got from the formula: % Proliferation=100×(G3 value of sample well-Go value)/(G3 value of DMSO control-Go value). The GI50 values were further calculated as the compounds concentration required for 50% Proliferation in best-fit curves using Genedata Screener® software.
# WT HER2 = WT HER2 (Homo sapiens (Human), UniProt P04626); experiment: HER2 (Y1248) phosphorylation in BT474 cells (MSD); conditions: p-HER2 (Y1248)/total HER2, 4 h, read-out: HER2 WT Amplification BT474 IC50
# Chain of WT HER2 (P04626 23-1255): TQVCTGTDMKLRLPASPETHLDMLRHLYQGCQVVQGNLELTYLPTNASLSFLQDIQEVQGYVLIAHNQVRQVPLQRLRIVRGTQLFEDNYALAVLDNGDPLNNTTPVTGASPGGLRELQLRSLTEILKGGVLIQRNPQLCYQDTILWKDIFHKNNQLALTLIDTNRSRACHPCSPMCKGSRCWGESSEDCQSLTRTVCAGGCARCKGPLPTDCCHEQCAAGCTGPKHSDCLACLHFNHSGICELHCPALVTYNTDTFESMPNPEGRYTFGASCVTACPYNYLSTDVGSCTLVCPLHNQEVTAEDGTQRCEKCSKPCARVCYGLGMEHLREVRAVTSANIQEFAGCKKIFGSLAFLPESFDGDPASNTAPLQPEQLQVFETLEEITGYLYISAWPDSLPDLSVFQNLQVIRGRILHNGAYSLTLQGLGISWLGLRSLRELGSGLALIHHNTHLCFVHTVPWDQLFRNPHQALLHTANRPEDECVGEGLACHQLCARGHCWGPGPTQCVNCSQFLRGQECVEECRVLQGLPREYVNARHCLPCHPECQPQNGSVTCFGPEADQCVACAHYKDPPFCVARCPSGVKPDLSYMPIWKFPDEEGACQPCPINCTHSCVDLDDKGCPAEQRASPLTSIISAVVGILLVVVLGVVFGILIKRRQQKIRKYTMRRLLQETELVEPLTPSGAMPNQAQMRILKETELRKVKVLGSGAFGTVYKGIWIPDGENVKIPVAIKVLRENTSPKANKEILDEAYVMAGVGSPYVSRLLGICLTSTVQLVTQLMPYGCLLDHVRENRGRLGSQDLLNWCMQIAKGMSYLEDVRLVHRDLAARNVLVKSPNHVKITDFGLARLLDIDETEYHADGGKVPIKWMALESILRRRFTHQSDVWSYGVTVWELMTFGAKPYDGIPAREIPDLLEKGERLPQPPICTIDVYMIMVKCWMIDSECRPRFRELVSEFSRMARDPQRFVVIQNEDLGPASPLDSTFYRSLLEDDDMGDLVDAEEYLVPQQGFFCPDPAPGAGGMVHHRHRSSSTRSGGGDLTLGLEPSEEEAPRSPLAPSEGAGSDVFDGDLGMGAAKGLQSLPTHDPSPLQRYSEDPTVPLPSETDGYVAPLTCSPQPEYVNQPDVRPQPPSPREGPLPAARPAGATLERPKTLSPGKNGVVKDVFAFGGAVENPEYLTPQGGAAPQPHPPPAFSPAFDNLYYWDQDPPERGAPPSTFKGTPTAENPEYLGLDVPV
# Description: The plates were incubated for 4 h at 37° C. with 5% CO2 and then the HER2 (Y1248) phosphorylation level of cells in each well were measured with MSD Kit (Phospho-ErbB2 ([…]) Assay Whole Cell Lysate Kit: Cat # […]-3). The assay is a electrochemiluminescent method (MESO SCALE DISCOVERY) for determining both phosphorylated and total HER2 of cells with an MSD SECTOR® Imager and then the ratio of p-HER2/total HER2 can be generated by the machine.
# WT EGFR = WT EGFR (Homo sapiens (Human), UniProt P00533); experiment: EGFR (Y1068) phosphorylation in NCI-H838 cells (MSD); conditions: p-EGFR (Y1068)/total EGFR, 4 h, hEGF stimulation
# Chain of WT EGFR (P00533 25-1210): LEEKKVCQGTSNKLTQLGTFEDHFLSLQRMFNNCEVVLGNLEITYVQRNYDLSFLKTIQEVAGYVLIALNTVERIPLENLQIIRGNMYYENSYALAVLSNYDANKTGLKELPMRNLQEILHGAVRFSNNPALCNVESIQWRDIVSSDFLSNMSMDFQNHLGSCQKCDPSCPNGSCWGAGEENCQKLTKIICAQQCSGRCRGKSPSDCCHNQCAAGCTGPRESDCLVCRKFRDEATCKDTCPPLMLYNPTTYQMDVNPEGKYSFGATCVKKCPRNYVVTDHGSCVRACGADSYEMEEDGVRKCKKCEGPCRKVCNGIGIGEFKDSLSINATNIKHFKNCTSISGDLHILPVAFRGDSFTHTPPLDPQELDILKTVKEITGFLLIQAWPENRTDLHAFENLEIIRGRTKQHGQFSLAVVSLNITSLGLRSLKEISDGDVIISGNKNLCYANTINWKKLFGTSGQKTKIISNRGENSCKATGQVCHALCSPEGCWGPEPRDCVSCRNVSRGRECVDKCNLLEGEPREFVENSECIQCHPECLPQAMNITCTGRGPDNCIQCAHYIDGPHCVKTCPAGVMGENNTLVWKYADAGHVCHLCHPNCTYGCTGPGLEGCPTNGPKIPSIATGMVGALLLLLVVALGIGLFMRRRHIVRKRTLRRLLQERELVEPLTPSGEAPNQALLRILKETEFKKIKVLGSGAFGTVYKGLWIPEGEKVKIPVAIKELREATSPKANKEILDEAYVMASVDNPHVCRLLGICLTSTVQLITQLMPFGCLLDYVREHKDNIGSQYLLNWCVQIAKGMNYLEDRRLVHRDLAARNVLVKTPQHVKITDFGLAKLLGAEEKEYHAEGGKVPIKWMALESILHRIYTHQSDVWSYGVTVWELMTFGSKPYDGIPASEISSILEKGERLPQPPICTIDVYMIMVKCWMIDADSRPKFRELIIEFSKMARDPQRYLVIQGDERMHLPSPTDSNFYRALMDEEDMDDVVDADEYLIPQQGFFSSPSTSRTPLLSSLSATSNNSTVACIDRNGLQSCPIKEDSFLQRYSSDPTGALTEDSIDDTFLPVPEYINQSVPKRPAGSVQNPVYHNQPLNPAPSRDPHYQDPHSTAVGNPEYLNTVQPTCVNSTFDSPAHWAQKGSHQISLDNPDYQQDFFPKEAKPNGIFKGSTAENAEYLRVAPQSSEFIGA
Structure (SMILES),GI50 (BT474 cells) [nM],IC50 (WT HER2) [nM],IC50 (WT EGFR) [nM]
"Cc1cc(Nc2ncnc3cccc(O[C@H]4C[C@H]5CC[C@@H](C4)N5CC(F)F)c23)ccc1Oc1ccn2ncnc2c1 [Compound 2, N-(4-([1,2,4]triazolo[1,5-a]pyridin-7-yloxy)-3-methylphenyl)-5-(((1R,3r,5S)-8-(2,2-difluoroethyl)-8-azabicyclo[3.2.1]octan-3-yl)oxy)quinazolin-4-amine]",19 ± 1.4,6.17,
"Cc1cc(Nc2ncnc3cccc(OC4CCNC(C(F)F)C4)c23)ccc1Oc1ccn2ccnc2c1 (racemic) [Compound 15, (±)-(5-(((2S,4S)-2-(difluoromethyl)piperidin-4-yl)oxy)-N-(4-(imidazo[1,2-a]pyridin-7-yloxy)-3-methylphenyl)quinazolin-4-amine]",,2.55,> 10000
"COc1ccc2ncnc(Nc3ccc(Oc4ccn5ncnc5c4)c(C)c3)c2c1OC1CN(C)CCC1(F)F (single isomer, unassigned) [Compound 5, N-(4-([1,2,4]triazolo[1,5-a]pyridin-7-yloxy)-3-methylphenyl)-5-((4,4-difluoro-1-methylpiperidin-3-yl)oxy)-6-methoxyquinazolin-4-amine]",15.1 ± 8.19,6.83,> 3000
"COc1ccc2ncnc(Nc3ccc(Oc4cc5ncnn5cc4F)c(C)c3)c2c1OC1CCN(C)CC1(F)F (single isomer, unassigned) [Compound 23, 5-((3,3-difluoro-1-methylpiperidin-4-yl)oxy)-N-(4-((6-fluoro-[1,2,4]triazolo[1,5-a]pyridin-7-yl)oxy)-3-methylphenyl)-6-methoxyquinazolin-4-amine]",11.7,6.17,> 10000
"Cc1cc(Nc2ncnc3cccc(OC4CCN(C)CCC4(F)F)c23)ccc1Oc1ccn2ccnc2c1 (single isomer, unassigned) [Compound 21, 5-((5,5-difluoro-1-methylazepan-4-yl)oxy)-N-(4-(imidazo[1,2-a]pyridin-7-yloxy)-3-methylphenyl)quinazolin-4-amine]",15.9 ± 6.57,61.3 ± 11.2,
"Cc1cc(Nc2ncnc3cccc(OC45CCN(CC4)CC5)c23)ccc1Oc1ccn2ccnc2c1 [Compound 13, N-(4-(imidazo[1,2-a]pyridin-7-yloxy)-3-methylphenyl)-5-(quinuclidin-4-yloxy)quinazolin-4-amine]",49.8 ± 6.87,21.8,> 3000
"COc1ccc2ncnc(Nc3ccc(Oc4ccn5ncnc5c4)c(C)c3)c2c1OC1CCN(C)CC1F (single isomer, unassigned) [Compound 3, N-(4-([1,2,4]triazolo[1,5-a]pyridin-7-yloxy)-3-methylphenyl)-5-((3-fluoro-1-methylpiperidin-4-yl)oxy)-6-methoxyquinazolin-4-amine]",44.7 ± 4.2,26,> 3000
"CS(=O)(=O)CCNCc1ccc(-c2ccc3ncnc(Nc4ccc(OCc5cccc(F)c5)c(Cl)c4)c3c2)o1 [Lapatinib, reference compound]",12.1 ± 2.78,,
"CCN1CCC(Oc2cccc3ncnc(Nc4ccc(Oc5ccn6ncnc6c5)c(C)c4)c23)C(F)(F)C1 (single isomer, unassigned) [Compound 12]",9.02,7.56,> 3000
"[2H]C([2H])([2H])Oc1ccc2ncnc(Nc3ccc(Oc4ccn5ncnc5c4)c(C)c3)c2c1OC1CCN(C([2H])([2H])[2H])CC1(F)F (racemic) [Compound 26, (±)-N-(4-([1,2,4]triazolo[1,5-a]pyridin-7-yloxy)-3-methylphenyl)-5-((3,3-difluoro-1-(methyl-d3)piperidin-4-yl)oxy)-6-(methoxy-d3)quinazolin-4-amine]",14.1,5.84,> 10000
"Cc1cc(Nc2ncnc3ccc(NC4=NC(C)(C)CO4)cc23)ccc1Oc1ccn2ncnc2c1 [ONT380, reference compound]",10.8 ± 4.13,2,> 3000
"Cc1cc(Nc2ncnc3cc(OC4CCOC4)cc(OC4CCN(C)CC4(F)F)c23)ccc1Oc1ccn2ncnc2c1 (single isomer, unassigned) [Compound 18, N-(4-([1,2,4]triazolo[1,5-a]pyridin-7-yloxy)-3-methylphenyl)-5-((3,3-difluoro-1-methylpiperidin-4-yl)oxy)-7-((tetrahydrofuran-3-yl)oxy)quinazolin-4-amine]",8.58 ± 3.55,12.6,515
"COc1ccc2ncnc(Nc3ccc(Oc4ccn5ncnc5c4)c(C)c3)c2c1OC[C@H]1CC(F)(F)CCN1C [Compound 4, (R)-N-(4-([1,2,4]triazolo[1,5-a]pyridin-7-yloxy)-3-methylphenyl)-5-((4,4-difluoro-1-methylpiperidin-2-yl)methoxy)-6-methoxyquinazolin-4-amine]",4.33 ± 0.63,7.96,> 3000
"Cc1cc(Nc2ncnc3cc(N)cc(OC4CCN(C)CC4(F)F)c23)ccc1Oc1ccn2ncnc2c1 (single isomer, unassigned) [Compound 10, N^4-(4-([1,2,4]triazolo[1,5-a]pyridin-7-yloxy)-3-methylphenyl)-5-((3,3-difluoro-1-methylpiperidin-4-yl)oxy)quinazoline-4,7-diamine]",19 ± 2.46,7.86,> 3000
"Cc1cc(Nc2ncnc3cccc(OC4CCN(C)CC4(F)F)c23)ccc1Oc1ccc2c(c1)ncn2C (single isomer, unassigned) [Compound 7, 5-((3,3-difluoro-1-methylpiperidin-4-yl)oxy)-N-(3-methyl-4-((1-methyl-1H-benzo[d]imidazol-5-yl)oxy)phenyl)quinazolin-4-amine]",8.36 ± 0.15,5.57,> 3000
"Cc1cc(Nc2ncnc3cccc(OC4CCN(C)CC4F)c23)ccc1Oc1ccn2ccnc2c1 (single isomer, unassigned) [Compound 11]",24.6 ± 4.85,,
"COc1cc(OC2CCN(C)CC2(F)F)c2c(Nc3ccc(Oc4ccn5ccnc5c4)c(C)c3)ncnc2c1 (single isomer, unassigned) [Compound 8, 5-((3,3-difluoro-1-methylpiperidin-4-yl)oxy)-N-(4-(imidazo[1,2-a]pyridin-7-yloxy)-3-methylphenyl)-7-methoxyquinazolin-4-amine]",7.47 ± 2.99,6.92,1800
"Cc1cc(Nc2ncnc3cccc(OC4CCN(C)CC4(F)F)c23)ccc1Oc1ccc2ccnn2c1 (single isomer, unassigned) [Compound 9, 5-((3,3-difluoro-1-methylpiperidin-4-yl)oxy)-N-(3-methyl-4-(pyrazolo[1,5-a]pyridin-6-yloxy)phenyl)quinazolin-4-amine]",27.3 ± 14.5,16.2,1030
"COc1cc(OC2CCN(C)CC2(F)F)c2c(Nc3ccc(Oc4cc5ncnn5cc4F)c(C)c3)ncnc2c1 (single isomer, unassigned) [Compound 22, 5-((3,3-difluoro-1-methylpiperidin-4-yl)oxy)-N-(4-((6-fluoro-[1,2,4]triazolo[1,5-a]pyridin-7-yl)oxy)-3-methylphenyl)-7-methoxyquinazolin-4-amine]",18.6 ± 6.51,11.6 ± 10.4,2920 ± 2320
